Source: patent US5614562A, “Method of treating drug resistant tumor cells using organoselenones” (The University of Sourthern California, priority 1992, dated 1997)
Converted amounts (≈) assume the structure as drawn. Where two headings read alike, the source gives them in different places.

How the values were obtained:
HCT/VP35 = test: In vitro cytotoxicity, VP16 resistant HCT/VP35 human colon carcinoma; assay type: cell-based; details: for ratio of IC50 values HCT/VP35 vs HCT116: IC50 divided by IC50 for HCT116
Source text: | HCT/VP35 human colon, VP16 resistant

L1210/0 [1] = test: Cytotoxicity, 48-hr exposure of L1210/0 leukemia cells; assay type: cell-based, murine; details: read-out: IC50 L1210/0
Source text: (§1) Murine L1210 leukemia cells sensitive (L1210/0) and resistant (L1210/L-PAM)to L-phenylalanine mustard were obtained that are adaptable to either in vitro or in vivo passage.
(§2) Broad resistance of the L1210/L-PAM cell line is shown by the approximately 4-fold and 9-fold increases in IC50, compared to L1210/0, for L-PAM and mechlorethamine, respectively (Comparative Examples 3 and 4). […].

L1210/L-PAM [2] = test: Cytotoxicity, 48-hr exposure of L-PAM resistant L1210/L-PAM leukemia cells; assay type: cell-based, murine; details: for IC50: read-out: IC50 L1210/L-PAM; for fold increase in IC50, L1210/L-PAM compared to L1210/0: 48-h exposure
Source text: as §1, §2

HCT/VM46 = test: In vitro cytotoxicity, VM26 resistant HCT/VM46 human colon carcinoma; assay type: cell-based; details: for ratio of IC50 values HCT/VM46 vs HCT116: IC50 divided by IC50 for HCT116
Source text: | HCT/VM46 human colon, VM26 resistant

HCT116 = test: In vitro cytotoxicity, HCT116 human colon carcinoma; assay type: cell-based; details: data provided by Bristol-Myers Laboratories
Source text: ^b Cell lines: HCT116 human colon (sensitive to VP16 and VM26)

[3] = assay type: physicochemical
[4] = Swain-Scott product competition of sulfur nucleophiles vs NBP (second-order rate constant ratios); assay type: physicochemical; details: S2O3^2- vs NBP, 37° C., 10 h, 52% aqueous acetone, mean ± S.D.
Source text: (§3) The properties of nucleophilicity and electivity can be quantitatively expressed as n and s constants in the Swain-Scott linear free energy relationship. It has been shown that s and n constants of biological alkylating agents and nucleophiles, respectively, can be readily determined with high precision, using 4-(4-nitrobenzyl)pyridine (NBP) as a competitive substrate for alkyl product formation (Spears, C. P. Mol. Pharmacl.19:496-504,1981; Barbin,A.,Bereziat, A., O'Neill, I. K., and Bartsch, H. Chem.-Biol. Interact,73:261-277, 1990; Kang, S. I., and Spears,C. P. J. Med. Chem. 33:1544-1547, 1990). Broad-spectrum antitumor alkylating agents show uniformly high s constants Spears, C. P. Mol.Pharmacol. 19:496-504, 1981; in contrast, mutagenically efficient alkylating agents show low values (Peterson,A. R., Landolph, J. R., Peterson, H., Spears, C. P., and Heidelberger, C. Cancer Res. 41:3095-3099, 1981; Barbin, A., and Bartsch, H. Mut. Res.215:95-106, 1989).
(§4) FIG. 1 is a Swain-Scott plot of the ratio of second-order rate constants, log (ky /knbp) for several model sulfur, nitrogen, and oxygen nucleophiles in their reactions with 2-chloroethyl 4-methoxy-phenyl selenone ("CEMOS"), vs. their published nucleophilicity nCH3 Br constants. Values of n were taken to be 2.72 for acetate (AcO--), 3.3 for ascorbate, 3.6 for pyridine, 4.0 for azide (N3), 3.94 for nitrite, 5.1 for thiol (SH), 6.18 for sulfite (SO3^2-), 6.36 for thiosulfate (S2 O3^2-), and 6.6 for thiophosphate (HPSO3^2-) (derived from the Ogston "Competition Factor") (Ogston, A. G., Holiday, E. R., Philpot, J. S. L., and Stocken, L. A. Trans.Faraday Soc. 44:45-52, 1948).
Extrapolation of Eq. A predicts that the log (ky /knbp) values for the thiol nucleophiles should have ranged from 3 to 5. However, the measured ratios of second-order rate constants were approximately 100-fold lower than this expectation. Also, the linear regression relationship, Eq. B (FIG. 1), for correlation of log (ky /knbp) values vs. nCH3 Br constants gave a sulfur nucleophile selectivity constant, s, equal to 0.84, approximately one-half of the value for reaction with nitrogen and oxygen nucleophiles:
(§5) ^a By competition between S2 O3^2- and NBP log(kS
(§6) /knbp) or N3^- and NBP log(kN /knbp ) at
(§7) 37° C. and 10 h, in 52% aqueous acetone, using initial
(§8) concentrations of 0.0435 mM and 0.0217 mM of 2chloroethyl phenyl selenone
(§9) and nornitrogen mustard, respectively, as described. Values, experimental

[5] = system: 7 different human colon carcinoma cell lines; details: read-out: average IC50, NCI in vitro screen; cited from earlier work
[6] = Acute intraperitoneal toxicity / maximally tolerated dose in mice; assay type: in vivo; details: 6 mg/kg/day i.p., separate experiment
Procedure: (§10) The maximally tolerated duration of the highest dose shown in FIG. 2 and Table II, 6 mg/kg/day i.p. of 2-chloroethyl phenyl selenone, was 10 days in a separate experiment. In the experiments shown, i.p. drug was administered for 5 consecutive days, Days 1-5, beginning the day after tumor inoculation (on Day 0).

[7] = system: P388 murine leukemia ascites cells; test: In vivo growth inhibition of P388 leukemia ascites in mice; parameters: species or system murine; BDF1 mice
Procedure: In FIG. 2 and Table II are shown the results of in vivo antitumor testing of 2-chloroethyl aryl selenones against murine P388 Leukemia ascites cells.
Examples 5-8 consisted of the use of 2-chloroethyl 4-methoxy-phenyl selenone to treat the mice. Examples 9-12 were the same as example 5 except 2-chloroethyl phenyl selenone was employed.
as §10
Mice were inoculated i.p. with 1×10^6 cells of P388 murine leukemia ascites passaged in BDF1 mice, in a volume of 0.1 ml. The selenones were formulated in normal (0.9%, w/v) NaCl for an injection volume of 0.3 ml. Control mice (12 in each group) received i.p. saline alone comparative examples 1 and 2. For each dose level and drug, 6 mice per group were used.
The plateauing of weight increase, at Days 8-9, is consistent with classical Gompertizian tumor growth kinetics (Laird, A. K. Brit. J. Cancer 18:490-502, 1964). The delays observed in the time period before the onset of the exponential phase of weight increase are given in Table II, defined as the Growth Delay.
^a Calculated from Day at which weight first exceeded baseline (Day 0

[8] = Swain-Scott product competition of nitrogen and oxygen nucleophiles vs NBP (second-order rate constant ratios); assay type: physicochemical; details: N3^- vs NBP, 37° C., 10 h, 52% aqueous acetone, mean ± S.D.
Source text: as §3, §4
The slope of the linear regression equation through the 5 nitrogen and oxygen nucleophiles gives a Swain-Scott selectivity constant, s, equal to 1.79, by Eq. A, shown in FIG. 1:
as §5, §6, §7, §8, §9

[9] = system: HT29 human colon carcinoma cells; test: Growth inhibition cytotoxicity against HT29 human colon carcinoma cells (MER(+)); assay type: cell-based; details: HT-29
Source text: (Example 15) These cells are very high in the alkyltransferase enzyme for repair of DNA guanine O6-alkyl products, and therefore are considered strongly MER(+) in phenotype. Levels of this enzyme in HT29 cells have averaged about 0.5 pmol/mg protein in recent studies (K. Chan, et al., unpublished). […] Thus, the lack of cross-resistance to ethyleneimines by the present invention of 2-chloroethyl aryl selenones is not associated with resistence mediated by the alkyltransferase repair enzyme.

L1210/0 [10] = details: cited from earlier work
[11] = compared with chlorambucil; cited from earlier work
L1210/L-PAM [12] = details: L1210/L-PAM line; cited from earlier work
[13] = VP16 resistant, data provided by Bristol-Myers Laboratories
[14] = VM26 resistant, data provided by Bristol-Myers Laboratories
[15] = Mus musculus, L1210/0, 48-hr exposure
[16] = Mus musculus, L1210/LPAM, 48-hr exposure

Question: For “2,6Bis(3-methanesulfonylpropylseleno)lutidine [Lutidine Derivative]”, which “IC50 HCT/VP35” value (HCT/VP35; [13]) is on record?
Answer: > 15.6 µg/mL

Question: And the IC50 (L1210/0 [1]; 48-hr exposure)?
Answer: 12 µM

Question: And the “Ratio of IC50s (L1210/L-PAM vs L1210/0)” value (L1210/L-PAM [2]; 48-hr exposure)?
Answer: 2.3

Question: What about the IC50 (L1210/L-PAM [2]; 48-hr exposure) of the same molecule?
Answer: 28 µM

Question: And the “IC50 HCT/VM46” value (HCT/VM46; [14])?
Answer: > 15.6 µg/mL

Question: And the “IC50 HCT116” value (HCT116)?
Answer: > 15.6 µg/mL

Question: Which results are given for 3-methanesulfonylpropyl phenyl selenone?
Answer: ratio of IC50 values HCT/VP35 vs HCT116 (HCT/VP35): 0.8; IC50 HCT/VP35 (HCT/VP35; [13]): 5.15 µg/mL; ratio of IC50 values HCT/VM46 vs HCT116 (HCT/VM46): 0.8; IC50 HCT/VM46 (HCT/VM46; [14]): 4.93 µg/mL; IC50 HCT116 (HCT116): 6.34 µg/mL

Question: Which results are given for `O=[Se](=O)(CCCl)c1ccccc1` [2-chloroethyl phenyl selenone]?
Answer: IC50 (HCT/VP35; Homo sapiens, HCT/VP35, VP16 resistant, data provided by Bristol-Myers Laboratories): 0.82 µg/mL (≈ 3.26 µM); ratio of IC50 values HCT/VP35 vs HCT116 (HCT/VP35): 0.8; AA (alkylating activity, absorption at 560 nm) ([3]; alkalinized alkyl-NBP, mean ± S.D.): 0.75 ± 0.004; alkylating activity relative to mechlorethamine HCl ([3]; mechlorethamine HCl = 100%): 140%; alkylating activity, percent of nor-nitrogen mustard ([3]; relative to nor-nitrogen mustard): 170%; IC50 (L1210/0 [1]; [15]): 0.55 µM; log(kS/knbp) [4]: 1.77 ± 0.05; log(kS/knbp) ([4]; listed as SKI-273): 1.77±0.05; IC50 [5]: 2.3 ± 1.6 µM; maximally tolerated duration [6]: 10 days; Ratio of IC50s (L1210/L-PAM vs L1210/0) (L1210/L-PAM [2]; 48-hr exposure): 0.9; IC50 (L1210/L-PAM [2]; [16]): 0.51 µM; IC50 (HCT/VM46; Homo sapiens, VM26 resistant, data provided by Bristol-Myers Laboratories): 0.44 µg/mL (≈ 1.75 µM); ratio of IC50 values HCT/VM46 vs HCT116 (HCT/VM46): 0.4; IC50 (HCT116; Homo sapiens, HCT-116): 1.02 µg/mL (≈ 4.05 µM); Growth delay ([7]; 1.0 mg/kg daily i.p., Days 1-5 (total 5 mg/kg), Ex. 6, Ex. 9): 4 days; inhibition of tumor growth by the lowest dose tested ([7]; 1 mg/kg/d i.p.): inhibition of tumor growth; Growth delay ([7]; 2.0 mg/kg daily i.p., Days 1-5 (total 10 mg/kg), Ex. 7, Ex. 10): 7 days; Growth delay ([7]; 4.0 mg/kg daily i.p., Days 1-5 (total 20 mg/kg), Ex. 8, Ex. 11): 8 days; Growth delay ([7]; 6 mg/kg daily i.p., Days 1-5 (total 30 mg/kg), Ex. 12): 11 days; log(kN/knbp) [8]: 1.95 ± 0.11; log(kN/knbp) ([8]; listed as SKI-273): 1.95±0.11; IC50 [9]: 2.8 µM

Question: Which results are given for `CS(=O)(=O)OCCC[Se]CCCOS(C)(=O)=O` [(MsOCH2 CH2 CH2)2 Se]?
Answer: IC50 (L1210/0 [1]; [15]): 2.3 µM; fold increase in IC50, L1210/L-PAM compared to L1210/0 (L1210/L-PAM [2]): 7 fold; Ratio of IC50s (L1210/L-PAM vs L1210/0) (L1210/L-PAM [2]; 48-hr exposure): 7.0; IC50 (L1210/L-PAM [2]; [16]): 16 µM

Question: With `O=NN(CCCl)C(=O)NCCCl` [BCNU, carmustine] as the molecule, how does the “sensitivity of parent L1210/0 line” value (L1210/0 [10]) read?
Answer: sensitive

Question: With `CS(=O)(=O)OCCCCOS(C)(=O)=O` [Busulfan] as the molecule, how does the IC50 (L1210/0 [1]; [15]) read?
Answer: 55 µM

Question: What about the “Ratio of IC50s (L1210/L-PAM vs L1210/0)” value (L1210/L-PAM [2]; 48-hr exposure) of the same molecule?
Answer: 1.1

Question: What about the IC50 (L1210/L-PAM [2]; [16]) of the same molecule?
Answer: 60 µM

Question: Which nucleophilic selectivity [11] does the source give for `CS(=O)(=O)CS(=O)(=O)OCCCl` [Clomesone] here?
Answer: relatively high nucleophilic selectivity approaching that of chlorambucil

Question: Which results are given for `N[C@@H](Cc1ccc(N(CCCl)CCCl)cc1)C(=O)O` [L-Phenylalanine Mustard (L-PAM), L-Phenylalanine Mustard]?
Answer: in vivo resistance (log cell kill differential) (L1210/L-PAM [12]): 4 log; IC50 (L1210/0 [1]; Mus musculus, L1210/0, 48 h): 1.6 µM; fold increase in IC50, L1210/L-PAM compared to L1210/0 (L1210/L-PAM [2]): approximately 4 fold; Ratio of IC50s (L1210/L-PAM vs L1210/0) (L1210/L-PAM [2]; 48-hr exposure): 4.4; IC50 (L1210/L-PAM [2]; Mus musculus, L1210/LPAM, 48 h): 7 µM; sensitivity of parent L1210/0 line (L1210/0 [10]): sensitive
